Test results taken from patent publication US9464291B2, “Methods and compositions for the treatment of cancer” (University of South Alabama, priority 2012, dated 2016).
“Also recorded” adds a separate entry of the source. Starred links: 1 amine or outer side, 2 acyl side, 3 side chain; linkers in the order of their positions; H or OH if unused. Positions of bridges follow the written chain, without caps; N, C: chain ends. Non-standard residues stand in square brackets, D forms with d. Residues, ends and D or L forms follow the SMILES beside them. Chains are numbered I, II in the order given. Actinocin(9to1) = Cc1c2oc3c(C)ccc(C(=O)[*:1])c3nc-2c(C(=O)[*:2])c(N)c1=O; NMeV = CN[C@H](C(=O)O)C(C)C; Nle = CCCC[C@H](N)C(=O)O; Sar = CNCC(=O)O

Experiments:
ERCC1 = details: human ovarian cancer cells after cisplatin exposure; cited from earlier work
OPN promoter = OPN promoter luciferase reporter assay in melanoma cell lines; assay type: cell-based, human; details: MDA-MB-435, MCC012A, MCC012F
Method: Empty pGL3 vector was used as control. Hedgehog ligands were added to the well 6 h prior to harvesting the cells (approximately 33 hr of initiation of transfection) for assay. Readings were normalized to total protein content. Each parameter was studied in triplicate and the experiment repeated at least 3 times. The data are represented as percent luciferase activity, which was derived as a percent of the relative light units in treated groups compared with the untreated groups.

RAW264.7 cells [1] = assay: Osteoclast differentiation, TRAP assay, RAW264.7; assay type: cell-based, murine; details: DM supplemented with SHH (100 nM) or OPN (100 ng/ml) vs DM alone
Method: Cell lines—Human metastatic breast cancer cells, MDA-MB-231, were cultured in Dulbecco's Modified Eagle's Medium (DMEM/F12; Invitrogen, Carlsbad, Calif.), supplemented with 2 mM L-glutamine, 1 mM sodium pyruvate, 0.02 mM non-essential amino acids, 5% fetal bovine serum, FBS (Atlanta Biologicals, Norcross, Ga.), without antibiotics or antimycotics (cDME/F12). SUM1315 and SUM159 cells (DiMeo, T. A., et al. (2009) Cancer Res 69, 5364-5373) (Asterand, Detroit, Mich.) were cultured in DMEM/F12 supplemented with […] insulin, 5% FBS (Atlanta Biologicals) and either 10 ng/ml EGF or 1 ng/ml hydrocortisone, without antibiotics or antimycotics. The SUM1315 cells are derived from a metastasis in a patient with infiltrating ductal carcinoma; SUM159 cells were derived from a primary breast tumor with metaplastic ccarcinoma. RAW264.7 (ATCC, TIB 71) cells, a murine pre-osteoclastic line capable of differentiation and mineralization in culture (in presence of RANKL and MCSF), were grown in DMEM with L-glutamine (ATCC, 30-2002) supplemented with 10% FBS. A 2× differentiation medium (DM) was formulated for the RAW 264.7 cells comprising RAW264.7 growth medium supplemented with 20% FBS, RANKL (100 ng/ml) and M-CSF (40 ng/ml) (Matsubara, T., et al. J Bone Miner Res 25, 1068-1076). Conditioned media was harvested from breast cancer cells and mixed in a 1:1 ratio with double strength differentiation medium to assess the effect on osteoclast differentiation. 1×DM was used as control or wherever SHH (R & D Systems, Minneapolis, Minn.) or OPN (R & D Systems) was used alone. The medium on the RAW264.7 cells was replenished every 48 hours. In order to assess the effect of secreted Hh ligands, the neutralizing 5E1 antibody was used (Developmental Studies Hybridoma Bank, at the University of Iowa, Iowa). The amount of 5E1 antibody used for the studies was determined following titration of the antibody with respect to its effects on osteoclast differentiation. Medium was supplemented with 5E1 (2.5 μg/ml) and was changed on alternate days until the end of the experiment. The effect of OPN on osteoclast activity was assessed by transfecting an OPN shRNA-expressing construct on day 6 post-induction of differentiation. Fresh DM was added the following day and cells were allowed to grow for another 12 hours before termination of experiment. GLI1 expression was silenced in the SUM1315 cells using shRNA targeting GLI1 into pSuperior. gfp+neo (Oligoengine, Wash., USA). […]
Osteoclast differentiation and activity assays—Tartarate-resistant acid phosphatase (TRAP) assay was conducted for RAW 264.7 following the manufacturer's protocol (Sigma, St. Louis, Mo.). […] The percentage of area resorbed was calculated using the NIS-Elements BR. […]

RAW264.7 cells [2] = assay: Osteoclast resorption activity, OAAS plates; assay type: cell-based, murine; details: DM supplemented with SHH (100 nM) or OPN (100 ng/ml)
Method: Osteoclast differentiation and activity assays—Tartarate-resistant acid phosphatase (TRAP) assay was conducted for RAW 264.7 following the manufacturer's protocol (Sigma, St. Louis, Mo.). This assay was indicative of the extent of differentiation. OAAS plates (Osteogenic Core Technologies, Choongnam, Republic of Korea) were utilized to measure osteoclastic activity. RAW 264.7 cells (25×103) were inoculated in 48-well plates. Cells were treated with serum-free conditioned media from breast cancer cells or 100 nM SHH or 100 ng/ml OPN on the following day. Media was changed every two days and the experiments were terminated either on day 6 (day 7 for knockdown experiments, with transfections being done on the sixth day). At the completion, cells were detached with 5% sodium hypochlorite and the wells were observed under a Nikon Eclipse TS 100 microscope at 10× magnification. […] The percentage of area resorbed was calculated using the NIS-Elements BR. 3.1 software.

Gli1 = assay: GLI1 silencing by shRNA constructs in MDA-MB-435 cells, Western blot; assay type: cell-based, human
Method: To evaluate the functional effects of active Hedgehog signaling stable cell lines that were knocked down for GLI1 expression by RNA interference were generated. The efficacy of three shRNA constructs for silencing GLI1 expression was assessed.
Generation of Stable Transfectants—Endogenous GLI1 from MDA-MB-435 cells was silenced using shRNAs (short hairpin RNA) cloned into pSuperior.neo+gfp plasmid (OligoEngine, Seattle, Wash.) (TABLE 1). Introduction of double-stranded RNA has proven to be a powerful tool to suppress gene expression through a process known as RNA interference (P. A. Sharp, Genes Dev. 13, 139 (1999)). However, in some mammalian cells this can provoke a strong cytotoxic response (T. Hunter, T. Hunt, R. J. Jackson, H. D. Robertson, J. Biol. Chem. 250, 409 (1975)). This non-specific effect can be circumvented by use of synthetic short [21- to 22-nucleotide (nt)] interfering RNAs (siRNAs), which can mediate strong and specific suppression of gene expression (S. M. Elbashir et al., Nature 411, 494 (2001)). shRNAs included a target sequence sense strand, a short hairpin, and a target sequence antisense strand.
Western Blotting Analysis—Whole cell lysates were collected in Nonidet P-40 buffer (150 mM NaCl, 50 mM Tris, 1% Nonidet P-40). […] Secreted OPN was assessed by loading an equal quantity of protein from the serum-free conditioned medium. […]

| Molecule | effect on ERCC1 up-regulation (ERCC1) | also measured |
| --- | --- | --- |
| CO[C@H]1[C@@H](OC)C[C@H](C)[C@@H](OC)C2=CC(=O)C=C(NC(=O)/C(C)=C/C=C\[C@H](OC)[C@@H](OC(N)=O)/C(C)=C/[C@@H]1C)C2=O [herbimycin A] | blunted ERCC1 up-regulation |  |
| CC[C@H](C)[C@@H]1NC(=O)CNC(=O)[C@@H]2Cc3c([nH]c4cc(O)ccc34)[S+]([O-])C[C@@H](NC(=O)CNC1=O)C(=O)N[C@@H](CC(N)=O)C(=O)N1C[C@H](O)C[C@H]1C(=O)N[C@@H]([C@@H](C)[C@@H](O)CO)C(=O)N2 (stereo in doubt) [α-amanitin] | blunted ERCC1 up-regulation |  |
| [Pt] [platinum] | blunted ERCC1 up-regulation |  |
| C[C@H]1CC[C@]2(NC1)O[C@H]1C[C@H]3[C@@H]4CC[C@H]5C[C@@H](O)CC[C@]5(C)[C@H]4CC[C@]3(C)[C@H]1[C@@H]2C [tomatidine] |  | OPN promoter activity (OPN promoter): had no effect on the promoter activity; OPN promoter activity (OPN promoter; listed as Tomatidine): had no effect on the promoter activity of OPN |
| OPN: recombinant human osteopontin (R & D Systems) |  | numbers of TRAP stained multinucleate cells (RAW264.7 cells [1]): significant (p<0.005) increase; osteoclast activity (area resorbed) (RAW264.7 cells [2]): notably enhances (p<0.001) osteoclast activity |
| Cc1cc(C)c(/C=C2\C(=O)Nc3ccccc32)[nH]1 [SU5416] | blunted ERCC1 up-regulation |  |
| Cc1c2oc3c(C)ccc(C(=O)N[C@@H]4C(=O)N[C@H](C(C)C)C(=O)N5CCC[C@H]5C(=O)N(C)CC(=O)N(C)[C@@H](C(C)C)C(=O)O[C@@H]4C)c3nc-2c(C(=O)N[C@@H]2C(=O)N[C@H](C(C)C)C(=O)N3CCC[C@H]3C(=O)N(C)CC(=O)N(C)[C@@H](C(C)C)C(=O)O[C@@H]2C)c(N)c1=O [actinomycin D] (I: T[dV]P[Sar][NMeV] / II: T[dV]P[Sar][NMeV]; ester I:1-I:C, II:1-II:C; linker I:N-II:N via Actinocin(9to1)) | blunted ERCC1 up-regulation |  |
| GLI1 shRNA-2: shRNA construct targeting GLI1 mRNA sequence TCATCAACTCGCGATGCAC, position 325 (target site or template, no part of the molecule) |  | GLI1 silencing (Gli1; shRNA cloned into pSUPERIOR): effective at silencing GLI1; also recorded: more effective GLI1 silencing; OPN expression (Gli1; shRNA-transfected cells): decreased OPN expression |
| CCCC[C@@H](C=O)NC(=O)[C@H](CC(C)C)NC(=O)[C@H](CC(C)C)NC(C)=O [N-acetyl-leucyl-leucyl-norleucinal] (Ac-Leu-Leu-[Nle]-aldehyde) | blunted ERCC1 up-regulation |  |
| C[C@@H]1C[C@@H]([C@H](O)CC2CC(=O)NC(=O)C2)C(=O)[C@@H](C)C1 [cycloheximide] | blunted ERCC1 up-regulation |  |
| CC(=O)N[C@@H](CSC(=O)[C@]1([C@@H](O)C(C)C)NC(=O)[C@H](C)[C@@H]1O)C(=O)O [lactacystin] | blunted ERCC1 up-regulation |  |
| [Cr] [chromium] | blunted ERCC1 up-regulation |  |
| interleukin 1-α: interleukin 1-α (protein, UniProt P01583 113-271, looked up) Interleukin-1 alpha: SAPFSFLSNVKYNFMRIIKYEFILNDALNQSIIRANDQYLTAAALHNLDEAVKFDMGAYKSSKDDAKITVILRISKTQLYVTAQDEDQPVLLKEMPEIPKTITGSETNLLFFWETHGTKNYFTSVAHPNLFIATKQDYWVCLAGGPPSITDFQILENQA | blunted ERCC1 up-regulation |  |
